US20110086834A1, “ALKYNYL ALCOHOLS AS KINASE INHIBITORS” (AMGEN INC., priority 2008, published 2011)

Target: T1, NIK (Homo sapiens, UniProt Q99558)
T1 construct: Both assays utilize a truncated form of NIK containing only the catalytic domain; made in house; host or cells: baculovirus expression system (insect cells implied)
Test: homogenous time resolved fluorescence (HTRF) assay for NIK Ki measurement
Type: biochemical
Settings: truncated NIK (catalytic domain only), autophosphorylation; 10 nM enzyme; 20, 100, 200 or 500 μM ATP; room temperature, 2 hours; read-out: Ki activity in the homogenous time resolved fluorescence (HTRF) assay for NIK

T1 sequence (Q99558 400-655 limits assumed): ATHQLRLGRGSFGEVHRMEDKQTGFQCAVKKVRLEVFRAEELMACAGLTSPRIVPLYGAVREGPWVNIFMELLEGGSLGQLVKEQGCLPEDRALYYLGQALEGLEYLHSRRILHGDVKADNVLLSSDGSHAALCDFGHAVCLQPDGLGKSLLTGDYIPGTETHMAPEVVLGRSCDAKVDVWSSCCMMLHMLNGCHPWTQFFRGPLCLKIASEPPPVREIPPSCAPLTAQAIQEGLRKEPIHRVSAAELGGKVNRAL

Ki [nM]	SMILES
< 1000	CC(C)(O)C#Cc1ccc2nc3c(n2c1)-c1nc(N)ncc1CCC3 [Example 250, 4-(2-Amino-6,7-dihydro-5H-pyrido[1″,2″:1′,2′]imidazo[4′,′:6,7]cyclohepta[1,2-d]pyrimidin-11-yl)-2-methyl-3-butyn-2-ol]
< 1000	Cc1ccsc1C(C)(O)C#Cc1ccc2c(c1)N(c1ccnc(N)n1)CC2 (centres unmarked) [Example 278, 4-(1-(2-Amino-4-pyrimidinyl)-2,3-dihydro-1H-indol-6-yl)-2-(3-methyl-2-thienyl)-3-butyn-2-ol]
< 1000	Cc1cnc(C(C)(O)C#Cc2ccc3c(c2)N(c2nc(N)ncc2Cl)CC3(C)C)s1 (centres unmarked) [Example 303, 4-(1-(2-Amino-5-chloro-4-pyrimidinyl)-3,3-dimethyl-2,3-dihydro-1H-indol-6-yl)-2-(5-methyl-1,3-thiazol-2-yl)-3-butyn-2-ol]
< 1000	COc1ccc(C#CC2(O)CCCC2)cc1Nc1ccnc(N)n1 [Example 270, 1-((3-((2-amino-4-pyrimidinyl)amino)-4-(methyloxy)phenyl)ethynyl)cyclopentanol]
< 1000	Cc1cnc(C(C)(O)C#Cc2ccc3c(c2)N(c2nc(N)ncc2Cl)CC32CN(C)C2)s1 (centres unmarked) [Example 301, 4-(1′-(2-Amino-5-chloro-4-pyrimidinyl)-1-methyl-1′,2′-dihydrospiro[azetidine-3,3′-indol]-6′-yl)-2-(5-methyl-1,3-thiazol-2-yl)-3-butyn-2-ol]
1000 to 30000	CC(C)C(C)(O)C#Cc1ccc2c(c1)N(c1ccnc(N)n1)CC2 (centres unmarked) [Example 266, 1-(1-(2-Amino-4-pyrimidinyl)-2,3-dihydro-1H-indol-6-yl)-3,4-dimethyl-1-pentyn-3-ol]
< 1000	CC(O)(C#Cc1ccc2c(c1)N(c1ncncc1Cl)CC2(C)C)c1nccs1 (centres unmarked) [Example 312, 4-(1-(5-chloro-4-pyrimidinyl)-3,3-dimethyl-2,3-dihydro-1H-indol-6-yl)-2-(1,3-thiazol-2-yl)-3-butyn-2-ol]
1000 to 30000	OC1(C#Cc2ccc3ccn(-c4cc(Nc5ccccc5)ncn4)c3c2)CCCC1 [Example 257, 1-((1-(6-(phenylamino)-4-pyrimidinyl)-1H-indol-6-yl)ethynyl)cyclopentanol]
1000 to 30000	COc1cc(Nc2cc(-n3ccc4ccc(C#CC5(O)CCCC5)cc43)ncn2)cc(OC)c1OC [Example 258, 1-((1-(6-((3,4,5-tris(methyloxy)phenyl)amino)-4-pyrimidinyl)-1H-indol-6-yl)ethynyl)cyclopentanol]
< 1000	CC(O)(C#Cc1ccc2c(c1)N(c1nc(N)ncc1Cl)CC21CCCC1)c1ncco1 (centres unmarked) [Example 319, 4-(1′-(2-Amino-5-chloro-4-pyrimidinyl)-1′,2′-dihydrospiro[cyclopentane-1,3′-indol]-6′-yl)-2-(1,3-oxazol-2-yl)-3-butyn-2-ol]

The next lines start with the compound.

SMILES	Ki [nM]
C[C@]1(CCO)CN(c2nc(N)ncc2Cl)c2cc(C#CC3(O)CCCC3)ccc21 (single isomer, unassigned) [Example 52, 1-(03R*)-1-(2-amino-5-chloro-4-pyrimidinyl)-3-(2-hydroxyethyl)-3-methyl-2,3-dihydro-1H-indol-6-yl)ethynyl)cyclopentanol]	< 1000
CC1(CO)CN(c2nc(N)ncc2Cl)c2cc(C#CC3(O)CCCC3)ccc21 (centres unmarked) [Example 54, 1-((1-(2-amino-5-chloro-4-pyrimidinyl)-3-(hydroxymethyl)-3-methyl-2,3-dihydro-1H-indol-6-yl)ethynyl)cyclopentanol]	< 1000
CC(O)(C#Cc1ccc2c(c1)N(c1nc(N)ncc1Cl)CC2)c1cc(F)ccn1 (centres unmarked) [Example 11, 4-(1-(2-amino-5-chloropyrimidin-4-yl)indolin-6-yl)-2-(4-fluoropyridin-2-yl)but-3-yn-2-ol]	1000 to 30000
COCCOc1cnc(N)nc1-c1cn(CCOC)c2ccc(C#CC3(O)CCCC3)cc12 [Example 234, 1-((3-(2-Amino-5-(2-methoxyethoxy)-4-pyrimidinyl)-1-(2-methoxyethyl)-1H-indol-5-yl)ethynyl)cyclopentanol]	< 1000
CN1CCC2(C1)CN(c1nc(N)ncc1Cl)c1cc(C#CC3(O)CCCC3)ccc12 (racemic) [Example 188, 1-((1-(2-Amino-5-chloro-4-pyrimidinyl)-r-methyl-1,2-dihydrospiro[indole-3,3′-pyrrolidin]-6-yl)ethynyl)cyclopentanol]	< 1000
CCN(CC)C(=O)Cn1cc(-c2nc(N)ncc2Cl)c2cc(C#CC3(O)CCCC3)ccc21 [Example 129, 2-(3-(2-amino-5-chloropyrimidin-4-yl)-5-(2-(1-hydroxycyclopentyl)ethynyl)-1H-indol-1-yl)-N,N-diethylacetamide]	< 1000
COCCOc1ccc(Nc2ncnc(N3CC(C)(C)c4ccc(C#CC5(O)CCCC5)cc43)n2)cc1 [Example 17, 1-(2-(1-(4-(4-(2-methoxyethoxy)phenylamino)-1,3,5-triazin-2-yl)-3,3-dimethylindolin-6-yl)ethynyl)cyclopentanol]	1000 to 30000
COCCOCCn1cc(-c2nc(N)ncc2Cl)c2cc(C#CC3(O)CCCCC3)ccc21 [Example 131, 1-(2-(3-(2-amino-5-chloropyrimidin-4-yl)-1-(2-(2-methoxyethoxy)ethyl)-1H-indol-5-yl)ethynyl)cyclohexanol]	< 1000
Nc1ncc(Cl)c(-c2cn(C3CCNC3)c3ccc(C#CC4(O)CCCC4)cc23)n1 (centres unmarked) [Example 114, 1-(2-(3-(2-amino-5-chloropyrimidin-4-yl)-1-(pyrrolidin-3-yl)-1H-indol-5-yl)ethynyl)cyclopentanol]	< 1000
CC(O)(C#Cc1ccc(OC2CCOCC2)c(Nc2nc(N)ncc2Cl)c1)c1nccs1 (centres unmarked) [Example 152, 4-(3-(2-Amino-5-chloropyrimidin-4-ylamino)-4-(tetrahydro-2H-pyran-4-yloxy)phenyl)-2-(thiazol-2-yl)but-3-yn-2-ol]	< 1000
COCCNC(=O)c1[nH]c2ccc(C#CC(C)(O)c3nccs3)cc2c1-c1ccncn1 (centres unmarked) [Example 89, 5-(3-hydroxy-3-(thiazol-2-yl)but-1-ynyl)-N-(2-methoxyethyl)-3-(pyrimidin-4-yl)-1H-indole-2-carboxamide]	< 1000
COCCOc1cnc(N)nc1-c1c[nH]c2ccc(C#CC3(O)CCC3)cc12 [Example 225, 1-((3-(2-Amino-5-(2-methoxyethoxy)-4-pyrimidinyl)-1H-indol-5-yl)ethynyl)cyclobutanol]	< 1000
COC(=O)C(C)(O)C#Cc1ccc2c(c1)N(c1nc(N)ncc1Cl)CC2(C)C (centres unmarked) [Example 48, methyl 4-(1-(2-amino-5-chloro-4-pyrimidinyl)-3,3-dimethyl-2,3-dihydro-1H-indol-6-yl)-2-hydroxy-2-methyl-3-butynoate]	< 1000
CCN(CC)CCn1cc(-c2nc(N)ncc2Cl)c2cc(C#CC3(O)CCCC3)ccc21 [Example 127, 1-(2-(3-(2-amino-5-chloropyrimidin-4-yl)-1-(2-(diethylamino)ethyl)-1H-indol-5-yl)ethynyl)cyclopentanol]	< 1000
Cc1cc([C@](C)(O)C#Cc2ccc3c(c2)N(c2nc(N)ncc2Cl)CC3)no1 (single isomer, unassigned) [Example 25]	< 1000
CN1CCC2(CC1)CN(c1nc(N)ncc1F)c1cc(C#CC3(O)CCCC3)ccc12 [Example 186, 1-((1-(2-amino-5-fluoropyrimidin-4-yl)-1′-methylspiro[indoline-3,4′-piperidine]-6-yl)ethynyl)cyclopentanol]	< 1000
